Measurements taken from patent US12428423B2, “1H-imidazo[4,5-h]quinazoline compound as protein kinase inhibitor” (SHENGKE PHARMACEUTICALS (JIANGSU) LTD., priority 2017, dated 2025).

What was measured:
neointimal formation = conditions: rats; cited from earlier work
CDK6/cyclin D1 = CDK6/cyclin D1 (Homo sapiens (Human), UniProt Q00534); experiment: Biochemical kinase inhibitory assay, CDK6/cyclin D1; conditions: in the presence of 10 μM ATP
Procedure: Potency determination in the biochemical kinase inhibitory assay. Kinase activity assay and IC50 determination. […] The kinase reaction was initiated by the addition of 1 μg (1.5 μM) of recombinant retinoblastoma protein, 5 μM ATP and 10μ Ci γ-32P-ATP. The reaction was incubated at 30° C. for 20 minutes, and the reaction was stopped by the addition of 2× Laemmli sample buffer, heated at 95° C. for three minutes, and dissolved in 12% acrylamide SDS-PAGE for autoradiography. The corresponding phosphorylated substrate protein bands were quantified using a densitometer (Bio-Rad). […] The compounds disclosed herein were tested in a similar manner for their inhibitory activities against CDK6/cyclin D1, CDK2/cyclin A, CDK5/cyclin P25, CDK9/cyclin Ti, CDK7/cyclin H and CDK19/cyclin C. […] The reaction took place in the presence of 10 μM ATP.

CDK4/cyclin D1 = CDK4/cyclin D1 (Homo sapiens (Human), UniProt P11802); experiment: Biochemical kinase inhibitory assay, CDK4/cyclin D1; conditions: recombinant CDK4/cyclin D1; in the presence of 10 μM ATP
CDK4/cyclin D1, sequence (P11802 whole entry): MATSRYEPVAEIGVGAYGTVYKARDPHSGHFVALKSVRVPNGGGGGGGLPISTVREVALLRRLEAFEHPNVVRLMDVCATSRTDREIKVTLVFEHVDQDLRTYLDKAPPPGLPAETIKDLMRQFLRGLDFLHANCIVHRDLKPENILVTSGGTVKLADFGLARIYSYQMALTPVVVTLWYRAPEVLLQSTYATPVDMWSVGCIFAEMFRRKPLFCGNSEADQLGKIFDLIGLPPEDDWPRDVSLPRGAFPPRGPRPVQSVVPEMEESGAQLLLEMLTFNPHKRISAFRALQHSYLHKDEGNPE
CDK4/cyclin D1, sequence (P24385 whole entry partner): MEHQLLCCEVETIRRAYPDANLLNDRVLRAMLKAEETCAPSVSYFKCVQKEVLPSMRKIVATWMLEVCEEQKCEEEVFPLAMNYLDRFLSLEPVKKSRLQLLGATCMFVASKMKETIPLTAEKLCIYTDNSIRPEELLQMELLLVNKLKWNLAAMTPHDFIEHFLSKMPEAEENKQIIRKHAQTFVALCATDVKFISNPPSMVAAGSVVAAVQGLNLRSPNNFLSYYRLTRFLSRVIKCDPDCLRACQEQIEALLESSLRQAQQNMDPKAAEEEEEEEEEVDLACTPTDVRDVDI
Procedure: Potency determination in the biochemical kinase inhibitory assay. Kinase activity assay and IC50 determination. […] The kinase reaction was initiated by the addition of 1 μg (1.5 μM) of recombinant retinoblastoma protein, 5 μM ATP and 10μ Ci γ-32P-ATP. The reaction was incubated at 30° C. for 20 minutes, and the reaction was stopped by the addition of 2× Laemmli sample buffer, heated at 95° C. for three minutes, and dissolved in 12% acrylamide SDS-PAGE for autoradiography. The corresponding phosphorylated substrate protein bands were quantified using a densitometer (Bio-Rad). […] The reaction took place in the presence of 10 μM ATP.

CDK6/cyclin D1, sequence (Q00534 whole entry): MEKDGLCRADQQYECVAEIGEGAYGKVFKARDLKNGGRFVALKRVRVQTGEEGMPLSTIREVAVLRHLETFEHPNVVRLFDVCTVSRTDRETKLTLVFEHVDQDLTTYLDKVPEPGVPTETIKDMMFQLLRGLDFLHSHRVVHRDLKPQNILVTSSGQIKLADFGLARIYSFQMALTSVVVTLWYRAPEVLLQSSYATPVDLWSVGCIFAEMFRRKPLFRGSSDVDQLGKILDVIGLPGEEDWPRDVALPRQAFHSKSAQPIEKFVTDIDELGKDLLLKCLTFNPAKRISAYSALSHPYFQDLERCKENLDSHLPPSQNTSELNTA
CDK6/cyclin D1, sequence (P24385 whole entry partner): as the sequence (P24385 whole entry partner) above

Row | IC50 (CDK6/cyclin D1) | IC50 (CDK4/cyclin D1) | SMILES | inhibition of neointimal formation (neointimal formation)
1 |  |  | COc1ccc(CNc2nc(N(CCO)CCO)nc3c2ncn3C(C)C)cc1 [CVT-313] | more than 80%
2 | 2 to 10 nM | 2 to 10 nM | Cc1cc(Nc2ncc3ccc4ncn(C5CCCC5)c4c3n2)ncc1N1CCOCC1 [Compound I-61] | 
3 | 50 to 100 nM | 50 to 100 nM | Cc1cc2ncn(C(C)C)c2c2nc(Nc3ccc(N4CCNCC4)cn3)ncc12 [Compound I-62] | 
4 | 50 to 100 nM | 50 to 100 nM | Cc1cc(Nc2ncc3c(C)cc4ncn(C(C)C)c4c3n2)ncc1N1CCNCC1 [Compound I-63] | 
5 | 50 to 100 nM | 50 to 100 nM | Cc1nc(Nc2ncc3c(C)cc4ncn(C(C)C)c4c3n2)ccc1N1CCNCC1 [Compound I-64] | 
6 | 50 to 100 nM | 50 to 100 nM | Cc1cc2ncn(C(C)C)c2c2nc(Nc3ccc(N4CCOCC4)cn3)ncc12 [Compound I-65] | 
7 | 50 to 100 nM | 50 to 100 nM | Cc1cc2ncn(C(C)C)c2c2nc(Nc3ccc(N4CCOC(C)C4)cn3)ncc12 (stereo not drawn) [Compound I-66] | 
8 | 2 to 10 nM | 2 to 10 nM | CC(C)n1cnc2c(Br)cc3cnc(Nc4ccc(N5CCNCC5)cn4)nc3c21 [Compound I-67] | 
9 | 2 to 10 nM | 2 to 10 nM | Cc1cc(Nc2ncc3cc(Br)c4ncn(C(C)C)c4c3n2)ncc1N1CCNCC1 [Compound I-68] | 
10 | 2 to 10 nM | 2 to 10 nM | Cc1nc(Nc2ncc3cc(Br)c4ncn(C(C)C)c4c3n2)ccc1N1CCNCC1 [Compound I-69] | 
11 | 2 to 10 nM | 2 to 10 nM | CC(C)n1cnc2c(Br)cc3cnc(Nc4ccc(N5CCOCC5)cn4)nc3c21 [Compound I-70] | 
12 | 10 to 50 nM | 10 to 50 nM | CC(C)n1cnc2c(Br)cc3cnc(Nc4ccc(N5CCC6(CC5)CNC6)cn4)nc3c21 [Compound I-71] | 
13 | 2 to 10 nM | 2 to 10 nM | Cc1cc2cnc(Nc3ccc(N4CCNCC4)cn3)nc2c2c1ncn2C(C)C [Compound I-72] | 
14 | 2 to 10 nM | 2 to 10 nM | Cc1cc(Nc2ncc3cc(C)c4ncn(C(C)C)c4c3n2)ncc1N1CCNCC1 [Compound I-73] | 
15 | 2 to 10 nM | 2 to 10 nM | Cc1nc(Nc2ncc3cc(C)c4ncn(C(C)C)c4c3n2)ccc1N1CCNCC1 [Compound I-74] | 
16 | 2 to 10 nM | 2 to 10 nM | Cc1cc2cnc(Nc3ccc(N4CCOCC4)cn3)nc2c2c1ncn2C(C)C [Compound I-75] | 
17 | 10 to 50 nM | 10 to 50 nM | Cc1cc(Nc2ncc3cc(C)c4ncn(C(C)C)c4c3n2)ncc1N1CCOCC1 [Compound I-76] | 
